In US5877185A, “Synergistic compositions useful as anti-tumor agents” (priority 1995, dated 1999):
Where two headings read alike, the source gives them in different places.

Tests used:
L-1210 cells = assay: time course of cell killing alone and with BSO, L-1210; assay type: cell-based, murine; conditions: L-1210, 2-3 day period; 1 mM BSO
Description: (§1) Molt 4-cells were seeded at a density of 0.05×10^6 cell/ml in the recommended growth medium in the absence or the presence of drugs as indicated. Cells were incubated at 37° C. in a 5% CO2 atmosphere and proliferation was monitored in 14 hr. by cell counting in a hemacytometer. .smallcircle., untreated control; .circle-solid., treated with 4 μM 4-iodo-3-nitrobenzoic acid; .gradient., treated with 1 mM BSO; .tangle-soliddn., treated with 4 μM-iodo-3-nitrobenzoic acid and 1 mM BSO; .quadrature., treated with 4 μM 4-INO2 BA; .box-solid., treated with 1 mM BSO; .gradient., treated with 4 μM INO2 BA and 1 mM BSO. L-1210 cells were seeded at a density of 0.05×10^6 cells/ml either from untreated stock suspensions or from 24-hr. pretreated (0.2×10^6 cells/ml) suspensions. .smallcircle., untreated control; .circle-solid., treated with […] NOBA; .gradient., treated with 1 mM BSO; .tangle-soliddn., 24-hr pretreatment with 1 mM BSO then treated with 4 μM NOBA.
(§2) A time course of the cell killings by 4-iodo-3-nitrobenzoic acid, INO2 BA and NOBA, each alone and in combination with BSO was obtained. Molt-4 cells were seeded at a density of 0.05×10^6 cells/ml in the recommended growth medium in the absence or presence of drugs as indicated in FIG. 3. Drugs were added to the wells immediately after seeding from 10-40 mM stock solution in DMSO. BSO was added from a 100 mM aqueous stock solution. Cells were incubated at 37° C. in a 5% CO2 atmosphere and proliferation was monitored in 14 hours by cell counting in a hemacytometer.

[1] = tested on: L-1210 Murine Leukemia Cells; assay: effect of nitroso- and nitro-compounds in L-1210 murine leukemia cells (suspension); assay type: cell-based; conditions: drug exposure 18 hours
Description: II. I50 and LD100 Values for Nitroso- and Nitro-Compounds in (A) Mammary Cancer Cells (monolayer cultures) and in (B) L-1210 Murine Leukemia Cells (suspension culture).
Cells were seeded at 5×10^4 to 2×10^5 /ml; drugs were added at the time of seeding; drug exposure was for 18 hours.

Molt-4 cells = assay: time course of cell killing alone and with BSO, Molt-4; assay type: cell-based; conditions: Molt-4, 2-3 day period; 4 μM drug, 1 mM BSO
Description: as §1, §2

HIV-1 (LAV strain) = assay: in vitro anti-retroviral testing (HIV-1 inactivation) in human peripheral lymphocytes (PBL); assay type: cell-based
Description: Both 6-NOBP and NOBA were tested on viral growth of HIV-1 (LAV strain) in phytohemagglutinin-stimulated human peripheral lymphocytes (PBL). An HIV-1 stock having an infectivity titer of 100,000 TCID50 was incubated for 30 min. at 22° C. with either of the drugs. Control HIV samples, containing no drugs, were incubated in the same manner. […] At the end of this incubation cultures were assayed for productive infection by an immunoassay for HIV-1 antigens and by reverse transcriptase as described in McDougal et al., J. Immunol. Methods 76:171-183 (1985). Virus titers were expressed as percentile values (percent infected cultures) compared to the controls, containing HIV dilutions which were not preincubated with the C-nitroso drugs. In a separate series of experiments, HIV-1 dilutions and C-nitroso drugs (see upper abscissa) were not preincubated but were added simultaneously to lymphocytes in exactly the same concentrations as described previously (i.e., following preincubation) and viral growth monitored 9 days later.

[2] = solubility and stability of nitro versus nitroso compound; assay type: physicochemical
MT-2 cells = assay: effectiveness on human T-lymphoblastoid leukemia cells, MT-2; assay type: cell-based; conditions: for IC50: Homo sapiens, MT2, concentration decreasing cell viability to 50% of control, 48 h incubation, read-out: I50; for LD100: zero viability after 48 hours of incubation
Description: (§3) IV. Effectiveness of 4-(halogen)-3-nitro-benzamide compounds as tested with human T-lymphoblastoid leukemia cell lines in culture.
(§4) Cells (MT-2 cells, or, in case of 3-fluoro-4-nitro-benzamide, CEM-4 cells) were seeded at a density of 0.1×10^5 /ml; the drugs were added at the time of seeding. The cultures were incubated at 37° C. in a 5% CO2 atmosphere and the cells numbers were monitored by hemacytometer counting in 24 hr intervals.

E ras cells = assay: cytostatic and cytocidal activity; assay type: cell-based, bovine; conditions: for cytostatic and cytocidal effects: at the concentrations given above; for IC50: Bos taurus, average of three trials
From the text: pADPRT ligands that oxidize CCHC zinc fingers are not unique inhibitors of pADPRT. […] Hakam et al., FEBS Lett. 193:1-4 (1991). These ligands bind non-covalently to the nicotinamide site and internal DNA-seeking domains of pADPRT. Bauer et al., manuscript in preparation (1994). In contrast, CCHC-oxidizing ligands also bind non-covalently to the nicotinamide site, but initially attack the F1 zinc finger oxidatively. Id. […] Id. […] U.S. Ser. No. 08/076,313 filed Jun. 11, 1993.
Each value is the average of three trials. Each trial deviated from the average by no more than twenty percent. […] Another isomer of the iodo-nitro-benzamide series, 2-iodo-4-nitrobenzamide had no effect at the concentrations given above.

AA-2 leukemia cells = assay: cytocidal effect in combination with ascorbate
Description: Because of the in vitro reactivity of the nitroso group of INOBA with both ascorbate and GSH, the apoptosis-inducing effect of NOBA with the action of the prodrug INO2 BA in the presence of ascorbate, added simultaneously with both drugs was compared.
AA-2 cells were seeded at a density of 0.2×10^6 cells/ml. Drugs and/or sodium ascorbate were added at the time of seeding, and cells were counted by hemacytometer after incubation (37° C., 5% CO^2) for 18 hr (Day 1) and for 42 hr (Day 2). Viability was evaluated by Trypan Blue exclusion.

HIV-1 NC zinc fingers = conditions: isolated HIV-1 NC zinc fingers and intact HIV-1 virions; cited from earlier work
[3] = tested on: normal bone marrow progenitor cells; conditions: tumoricidal concentrations; cited from earlier work
neutrophil granulocytes = conditions: tumoricidal concentrations; cited from earlier work
[4] = tested on: human immunodeficiency virus HIV-1; conditions: human lymphocytes; cited from earlier work
[5] = tested on: leukemic and other malignant human cells; conditions: cited from earlier work
CEM-4 cells = assay: effectiveness on human T-lymphoblastoid leukemia cells, CEM-4; assay type: cell-based
Description: as §3, §4

Q: What does the source list for `O=C(O)c1ccc(I)c([N+](=O)[O-])c1` [4-iodo-3-nitrobenzoic acid]?
A: effect on cell proliferation (L-1210 cells): no significant effect; I50 [1]: 16 nanomoles/10^5 cells; LD100 [1]: 32 nanomoles/10^5 cells; effect on cell proliferation (Molt-4 cells): no significant effect

Q: Which I50 [1] does the source give for `O=c1ccc2cc([N+](=O)[O-])ccc2o1` [NO2 BP, 6-Nitro-1,2-benzopyrone] here?
A: 35 nanomoles/10^5 cells

Q: What about the LD100 [1] of the same molecule?
A: 80 nanomoles/10^5 cells

Q: What about the “inhibition of HIV-1 activity in human lymphocytes” value (HIV-1 (LAV strain)) of the same molecule?
A: 52%

Q: What about the “TCID50 (calculated infectious titer after treatment)” value (HIV-1 (LAV strain); 500 μM) of the same molecule?
A: 85,114 TCID50

Q: And the inhibition at 500 µM (HIV-1 (LAV strain); Human immunodeficiency virus 1, Lymphocyte)?
A: 52.1%

Q: What about the log reduction at 500 µM (HIV-1 (LAV strain); Human immunodeficiency virus 1, Lymphocyte, 0.5 h, read-out: Decrease) of the same molecule?
A: 0.32

Q: And the stability and solubility [2]?
A: more stable and soluble than the active nitroso compound

Q: Which results are given for `NC(=O)c1ccc(Cl)c([N+](=O)[O-])c1` [4-chloro-3-nitro-benzamide]?
A: IC50 (MT-2 cells): 130 µM; LD100 (MT-2 cells): 300

Q: Which “cytostatic and cytocidal effects” value (E ras cells) does the source give for `NC(=O)c1ccc([N+](=O)[O-])cc1I` [2-iodo-4-nitrobenzamide] here?
A: no effect

Q: With `O=C1O[C@H]([C@@H](O)CO)C([O-])=C1O.[Na+]` [Ascorbate, sodium ascorbate, reference compound] as the molecule, how does the “effect on AA-2 leukemia cells by itself” value (AA-2 leukemia cells; 160 μM) read?
A: no effect

Q: What about the “cell number Day 1” value (AA-2 leukemia cells; ascorbate 160 μM, 18 hr) of the same molecule?
A: 480000 mL⁻¹

Q: And the “cell number Day 2” value (AA-2 leukemia cells; ascorbate 160 μM, 42 hr)?
A: 900000 mL⁻¹

Q: For `O=Nc1ccc2oc(=O)ccc2c1` [NOBP, 6-nitroso-1,2-benzopyrone], which “TCID50 (calculated infectious titer after treatment)” value (HIV-1 (LAV strain); 100 μM) is on record?
A: 102 TCID50

Q: What about the log reduction at 100 µM (HIV-1 (LAV strain); Human immunodeficiency virus 1, Lymphocyte, 0.5 h, 100 μM, of TCID50, read-out: Decrease) of the same molecule?
A: 3.24

Q: What about the inhibition at 100 µM (HIV-1 (LAV strain); Human immunodeficiency virus 1, Lymphocyte, 100 μM) of the same molecule?
A: 99.9%

Q: What about the zinc ejection (HIV-1 NC zinc fingers) of the same molecule?
A: eject zinc

Q: And the “effect on normal bone marrow progenitor cells” value [3]?
A: relatively harmless

Q: What about the “effect on superoxide formation by neutrophil granulocytes” value (neutrophil granulocytes) of the same molecule?
A: relatively harmless

Q: And the “inhibition of HIV-1 infection” value [4]?
A: inhibit infection

Q: What about the stability and solubility [2] of the same molecule?
A: poorly soluble

Q: What about the suppression of proliferation [5] of the same molecule?
A: completely suppressed

Q: Which IC50 (MT-2 cells) does the source give for `NC(=O)c1ccc(Br)c([N+](=O)[O-])c1` [4-bromo-3-nitro-benzamide] here?
A: 120 µM

Q: And the LD100 (MT-2 cells)?
A: 290

Q: What does the source list for `NC(=O)c1ccc(F)c([N+](=O)[O-])c1` [4-fluoro-3-nitro-benzamide]?
A: IC50 (CEM-4 cells; Homo sapiens, concentration decreasing cell viability to 50% of control, read-out: I50): 120 µM; LD100 (CEM-4 cells; zero viability after 48 hours of incubation): 280

Q: Which IC50 (E ras cells; E ras cells, read-out: Cytostatic Effect I50) does the source give for `NC(=O)c1cc([N+](=O)[O-])ccc1I` [2-iodo-5-nitrobenzamide] here?
A: 12 µM

Q: And the IC50 (E ras cells; with 0.8 mM BSO, read-out: Cytocidal Effect I50)?
A: 2 µM

Q: And the “cytostatic and cytocidal effects” value (E ras cells)?
A: more effective of the two isomers
